Data published in publication PMC13195669, “GPR3 Ligands Discovered through Combined Virtual and Conformational Biosensor-Based Screening” (Journal of the American Chemical Society, 2026).

Target: T1, GPR3 T3.37A mutant (Homo sapiens, UniProt P46089, T121A)
T1 construct: ligated to the full-length C-terminus; expressed in transfected cells; host or cells: HEK293A, transient
Experiment: GPR3 conformational biosensor with T3.37A point mutation
Type: cell-based
Settings: wildtype vs mutant biosensor; transiently transfected HEK293A
Description: To develop a hypothesis for the cause of the significant loss in efficacy from VH1 to 33, we computationally predicted the binding poses of both molecules in GPR3 (Figure a). […] In contrast, the cyclopropyl ring of 33 is still buried in the receptor’s transmembrane core. […] We also challenged this binding model of 33 with another GPR3 biosensor variant which harbors the T^3.37A point mutation in transmembrane helix 3. According to an alternative predicted pose of 33 obtained with Boltz-2 (c.f., SI – Materials and Methods section), this mutation should hamper 33 binding to GPR3.
BRET-based GPCR conformational sensor experiments
Cells expressing the conformational GPCR biosensors were grown for 24 h (stable cells) or 48 h (transiently transfected cells) in white 96-well plates and washed with 100 µl of HBSS. […] Three baseline BRET reads were recorded and averaged prior to the addition of serial dilutions of ligands or veh icle control and subsequent BRET reads. […] BRE T donor emission was quantified with a 470/80 nm monochromator. […] Experiments were carried out using a CLARIOstar plate reader.
FRET- and BRET-based measurements of cAMP levels and Gs dissociation/reassociation Transfected cells grown in black 96-well plates were washed twice with 100 µl of HBSS 48 h after transfection and incubated with HBSS. […] FRET donor emission was quantified with a 480/10 nm filter. […]

T1 sequence (P46089 2-330 T121A limits assumed): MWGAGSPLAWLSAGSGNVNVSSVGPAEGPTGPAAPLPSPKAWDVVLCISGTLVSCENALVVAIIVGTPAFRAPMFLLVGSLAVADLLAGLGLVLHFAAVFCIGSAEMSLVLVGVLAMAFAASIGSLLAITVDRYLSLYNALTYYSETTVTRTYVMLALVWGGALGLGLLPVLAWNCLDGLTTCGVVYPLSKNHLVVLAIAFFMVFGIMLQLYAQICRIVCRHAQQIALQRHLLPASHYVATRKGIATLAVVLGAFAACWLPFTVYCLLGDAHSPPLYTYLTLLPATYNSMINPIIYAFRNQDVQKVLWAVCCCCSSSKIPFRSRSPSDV

effect of T3.37A mutation on activity: no such effect on 33 activity
Compound: N=c1n(Cc2ccccc2)c2ccccc2n1CC1CC1 [compound 33]
